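Each compound was tested at five concentrations against cells in 96-well plates for 48 hours. GI50 = concentration required for 50% inhibition of growth.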 The source made the active and inactive calls. Cut-off read from the data, not from the text of the source: active = GI50 up to about 1.1 µM and inactive = higher.
Legend:
Experiment in all cases: DTP human tumour cell line panel, 48 h
SNB-19 = test system: SNB-19
SNB-75 = test system: SNB-75
HOP-92 = test system: HOP-92
SF-268 = test system: SF-268
UO-31 = test system: UO-31
A549 = test system: A549
SK-MEL-28 = test system: SK-MEL-28
A498 = test system: A498
HOP-62 = test system: HOP-62
OVCAR-8 = test system: OVCAR-8
ACHN = test system: ACHN
Malme-3M = test system: Malme-3M
LOX IMVI = test system: LOX IMVI
SN12C = test system: SN12C
SR = test system: SR
HCT-116 = test system: HCT-116
CAKI-1 = test system: CAKI-1
M14 = test system: M14

SMILES | GI50 (SNB-19) | GI50 (SNB-75) | GI50 (HOP-92) | GI50 (SF-268) | GI50 (UO-31) | GI50 (A549) | GI50 (SK-MEL-28) | GI50 (A498) | GI50 (HOP-62) | GI50 (OVCAR-8) | GI50 (ACHN) | GI50 (Malme-3M) | GI50 (LOX IMVI) | GI50 (SN12C) | GI50 (SR) | GI50 (HCT-116) | GI50 (CAKI-1) | GI50 (M14)
CCC(=O)OC1CCn2c1nc1c2C(=O)C(C)=C(NC(C)=O)C1=N (centres undefined) | 5.26 µM (inactive) | 2.48 µM (inactive) | 2.21 µM (inactive) | 2.54 µM (inactive) | 2.2 µM (inactive) | 3.02 µM (inactive) | 2.05 µM (inactive) | 1.82 µM (inactive) | 1.83 µM (inactive) | 1.04 µM (active) | 1.77 µM (inactive) | 1.43 µM (inactive) | 0.755 µM (active) | 1.6 µM (inactive) | 2 µM (inactive) | 0.849 µM (active) | 0.653 µM (active) | –
Cc1ccc(C)c(NC(=O)CCc2n[nH]c(=S)o2)c1 | > 100 µM (inactive) | > 100 µM (inactive) | > 100 µM (inactive) | > 100 µM (inactive) | > 100 µM (inactive) | > 100 µM (inactive) | > 100 µM (inactive) | > 100 µM (inactive) | > 100 µM (inactive) | > 100 µM (inactive) | > 100 µM (inactive) | > 100 µM (inactive) | > 100 µM (inactive) | > 100 µM (inactive) | > 100 µM (inactive) | > 100 µM (inactive) | > 100 µM (inactive) | > 100 µM (inactive)
CCOC(OCC)c1ccc(/C=C/c2cc(OC)c(OC)c(OC)c2)cc1 | 29 µM (inactive) | 19.5 µM (inactive) | 21.8 µM (inactive) | 23.1 µM (inactive) | 15.1 µM (inactive) | 27.7 µM (inactive) | 21 µM (inactive) | 18.8 µM (inactive) | 19.8 µM (inactive) | 26.9 µM (inactive) | 37.8 µM (inactive) | 17.1 µM (inactive) | 11.1 µM (inactive) | 18.9 µM (inactive) | – | 17 µM (inactive) | 24.9 µM (inactive) | 17.7 µM (inactive)
Nc1nc2c(c(=O)[nH]1)NC(CO)CN2 (centres undefined) | > 100 µM (inactive) | > 100 µM (inactive) | – | – | > 100 µM (inactive) | > 100 µM (inactive) | > 100 µM (inactive) | – | > 100 µM (inactive) | 71 µM (inactive) | 79.4 µM (inactive) | > 100 µM (inactive) | 19.2 µM (inactive) | > 100 µM (inactive) | – | 32.7 µM (inactive) | – | > 100 µM (inactive)
Nc1nc(Cl)cc(NCCCCCNc2cc(Cl)nc(N)n2)n1 | > 100 µM (inactive) | 72.3 µM (inactive) | 28.2 µM (inactive) | 29.1 µM (inactive) | > 100 µM (inactive) | 42 µM (inactive) | 75 µM (inactive) | – | > 100 µM (inactive) | 71.8 µM (inactive) | 15.2 µM (inactive) | – | 25.1 µM (inactive) | > 100 µM (inactive) | 38.7 µM (inactive) | 30.3 µM (inactive) | 17 µM (inactive) | 88.3 µM (inactive)
C=C(COC(C)=O)CC(/C=C(\C)CC/C=C(\C)CO)OC(C)=O (centres undefined) | > 100 µM (inactive) | 59 µM (inactive) | 54.8 µM (inactive) | > 100 µM (inactive) | > 100 µM (inactive) | > 100 µM (inactive) | > 100 µM (inactive) | > 100 µM (inactive) | > 100 µM (inactive) | > 100 µM (inactive) | > 100 µM (inactive) | – | > 100 µM (inactive) | > 100 µM (inactive) | – | > 100 µM (inactive) | – | > 100 µM (inactive)
O=C(/C=C/c1ccc([N+](=O)[O-])o1)N1CCN(Cc2ccccc2)CC1 | 16.2 µM (inactive) | 14.7 µM (inactive) | 14.1 µM (inactive) | 14 µM (inactive) | 17.3 µM (inactive) | 16.9 µM (inactive) | 4.89 µM (inactive) | 15.7 µM (inactive) | 20.2 µM (inactive) | 12.2 µM (inactive) | 14.7 µM (inactive) | – | 12.6 µM (inactive) | 9.04 µM (inactive) | 13 µM (inactive) | 10.8 µM (inactive) | 8.17 µM (inactive) | 4.66 µM (inactive)
CCN(CC)C(=S)SCC(=O)Nc1nc2c(s1)CCCC2 | > 100 µM (inactive) | 72.6 µM (inactive) | 68.2 µM (inactive) | > 100 µM (inactive) | 36.7 µM (inactive) | > 100 µM (inactive) | > 100 µM (inactive) | > 100 µM (inactive) | > 100 µM (inactive) | > 100 µM (inactive) | > 100 µM (inactive) | > 100 µM (inactive) | 57 µM (inactive) | > 100 µM (inactive) | 27.6 µM (inactive) | 64.3 µM (inactive) | – | > 100 µM (inactive)
CC1Cc2c(N)nc(NN)nc2NC1=O (centres undefined) | > 100 µM (inactive) | > 100 µM (inactive) | – | – | > 100 µM (inactive) | > 100 µM (inactive) | > 100 µM (inactive) | – | > 100 µM (inactive) | > 100 µM (inactive) | > 100 µM (inactive) | > 100 µM (inactive) | > 100 µM (inactive) | > 100 µM (inactive) | – | > 100 µM (inactive) | – | > 100 µM (inactive)
O=C1CC[C@@H](S(=O)(=O)c2ccccc2)[C@H](/C=C/c2ccccc2)O1 | > 100 µM (inactive) | > 100 µM (inactive) | – | – | > 100 µM (inactive) | > 100 µM (inactive) | > 100 µM (inactive) | > 100 µM (inactive) | > 100 µM (inactive) | > 100 µM (inactive) | > 100 µM (inactive) | > 100 µM (inactive) | > 100 µM (inactive) | > 100 µM (inactive) | > 100 µM (inactive) | > 100 µM (inactive) | – | > 100 µM (inactive)
O=C(O)C1=NN=C(C(=O)O)NN1 | > 100 µM (inactive) | > 100 µM (inactive) | > 100 µM (inactive) | > 100 µM (inactive) | > 100 µM (inactive) | > 100 µM (inactive) | > 100 µM (inactive) | – | – | > 100 µM (inactive) | > 100 µM (inactive) | > 100 µM (inactive) | > 100 µM (inactive) | > 100 µM (inactive) | – | > 100 µM (inactive) | > 100 µM (inactive) | > 100 µM (inactive)
Nc1nnc(NC(=O)C2=NS(=O)(=O)c3cc(S(N)(=O)=O)c(Cl)cc3N2)[nH]1 | > 100 µM (inactive) | > 100 µM (inactive) | > 100 µM (inactive) | > 100 µM (inactive) | > 100 µM (inactive) | > 100 µM (inactive) | > 100 µM (inactive) | > 100 µM (inactive) | > 100 µM (inactive) | – | > 100 µM (inactive) | > 100 µM (inactive) | > 100 µM (inactive) | > 100 µM (inactive) | > 100 µM (inactive) | > 100 µM (inactive) | > 100 µM (inactive) | > 100 µM (inactive)
CC[N+](C)(CC)CC(C)(C)C(=O)/C=C/c1ccc(/C=C/C(=O)C(C)(C)C[N+](C)(CC)CC)cc1 | > 100 µM (inactive) | > 100 µM (inactive) | > 100 µM (inactive) | > 100 µM (inactive) | > 100 µM (inactive) | > 100 µM (inactive) | > 100 µM (inactive) | > 100 µM (inactive) | > 100 µM (inactive) | > 100 µM (inactive) | > 100 µM (inactive) | > 100 µM (inactive) | > 100 µM (inactive) | > 100 µM (inactive) | – | > 100 µM (inactive) | > 100 µM (inactive) | > 100 µM (inactive)
COc1cccc(NC(=O)CC(=O)N2N=C(n3ccc4ccccc43)CC2c2ccccc2)c1 (centres undefined) | > 100 µM (inactive) | 71.3 µM (inactive) | 55.6 µM (inactive) | > 100 µM (inactive) | > 100 µM (inactive) | > 100 µM (inactive) | > 100 µM (inactive) | > 100 µM (inactive) | > 100 µM (inactive) | > 100 µM (inactive) | > 100 µM (inactive) | > 100 µM (inactive) | > 100 µM (inactive) | > 100 µM (inactive) | – | > 100 µM (inactive) | – | > 100 µM (inactive)
CC(=O)N1CC(=O)NC1=S | > 100 µM (inactive) | 69.3 µM (inactive) | > 100 µM (inactive) | > 100 µM (inactive) | > 100 µM (inactive) | > 100 µM (inactive) | > 100 µM (inactive) | – | > 100 µM (inactive) | > 100 µM (inactive) | > 100 µM (inactive) | > 100 µM (inactive) | > 100 µM (inactive) | > 100 µM (inactive) | > 100 µM (inactive) | > 100 µM (inactive) | > 100 µM (inactive) | > 100 µM (inactive)
NC(=O)c1ccccc1NC(=O)C(=O)C(C(=O)c1ccc(Cl)c(Cl)c1)C1OC(=O)c2ccccc21 (centres undefined) | 45 µM (inactive) | 23.4 µM (inactive) | 42.8 µM (inactive) | 34.4 µM (inactive) | – | 43.1 µM (inactive) | – | 31.8 µM (inactive) | 43.8 µM (inactive) | 39.6 µM (inactive) | 59.3 µM (inactive) | 14.5 µM (inactive) | – | 44.4 µM (inactive) | 95.9 µM (inactive) | 18.7 µM (inactive) | 52.6 µM (inactive) | 61.1 µM (inactive)
COc1ccc2occ(CCC(=O)O)c2c1 | > 100 µM (inactive) | > 100 µM (inactive) | > 100 µM (inactive) | – | – | > 100 µM (inactive) | > 100 µM (inactive) | > 100 µM (inactive) | > 100 µM (inactive) | > 100 µM (inactive) | > 100 µM (inactive) | – | > 100 µM (inactive) | > 100 µM (inactive) | – | > 100 µM (inactive) | > 100 µM (inactive) | > 100 µM (inactive)
